Results published in PubChem BioAssay (NCI).
Several values for one entry are separate records, joined by “and”; a condition that tells them apart may be missing. Equal values may be shown once.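 How tested: cells in 96-well plates exposed to compound for 48 hours at five concentrations. GI50 is the concentration that inhibits growth by half. The concentration for full growth arrest is given as TGI.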

Experiments:
Test in all cases: NCI anticancer screen, dose series, 48 h
OVCAR-8 ovarian = system: OVCAR-8 ovarian
K-562 leukemia = system: K-562 leukemia
NCI-H460 lung = system: NCI-H460 lung
M14 melanoma = system: M14 melanoma
PC-3 prostate = system: PC-3 prostate
HT29 colon = system: HT29 colon
SF-295 CNS = system: SF-295 CNS
HS 578T breast = system: HS 578T breast
MCF7 breast = system: MCF7 breast
T-47D breast = system: T-47D breast

Compound	GI50 (OVCAR-8 ovarian)	TGI (OVCAR-8 ovarian)	GI50 (K-562 leukemia)	TGI (K-562 leukemia)	GI50 (NCI-H460 lung)	TGI (NCI-H460 lung)	GI50 (M14 melanoma)	TGI (M14 melanoma)	GI50 (PC-3 prostate)	TGI (PC-3 prostate)	GI50 (HT29 colon)	TGI (HT29 colon)	GI50 (SF-295 CNS)	TGI (SF-295 CNS)	GI50 (HS 578T breast)	TGI (HS 578T breast)	GI50 (MCF7 breast)	TGI (MCF7 breast)	GI50 (T-47D breast)	TGI (T-47D breast)
O=C(OCc1ccc2c(Br)cc(Br)c(O)c2n1)c1cc2ccccc2[nH]1	0.829 µM	2.82 µM	0.398 µM	> 40 µM	1.53 µM	3.33 µM	0.763 µM	2.15 µM	0.965 µM	2.68 µM	0.408 µM	1.59 µM	3.32 µM	7.68 µM	1.24 µM	3.87 µM	0.434 µM	2.07 µM	1.91 µM	5.29 µM
CCN=c1sc2c(n1NC(=O)c1cc3ccc1CCc1ccc(cc1)CC3)C(=O)c1ccccc1C2=O	0.594 µM	1.35 µM	0.92 µM	13 µM	1.31 µM	4.86 µM	0.577 µM	1.11 µM	0.643 µM	3.05 µM	1.4 µM	19.2 µM	0.951 µM	2.64 µM	0.784 µM	2.28 µM	0.592 µM	1.3 µM	0.706 µM	2.34 µM
O=C1C=C[C@H](O)[C@@]2(CO)O[C@@H]12	13.2 µM	31.9 µM	3.35 µM	> 75.5 µM	26.8 µM	> 66.1 µM	15.2 µM	29 µM	16.3 µM	39.5 µM	6.32 µM	19.7 µM	8.26 µM	38.5 µM	30.6 µM	> 83.6 µM	5.38 µM	23.8 µM	8.16 µM	26.3 µM
Cn1nccc1Nc1nccc(-c2ccn([C@H](CO)c3ccc(Cl)c(F)c3)c(=O)c2)n1	6.56 µM	> 100 µM	22.5 µM	> 100 µM	38.4 µM	> 100 µM	0.0871 µM	> 72.2 µM	43.6 µM	> 100 µM	0.17 µM	> 100 µM	76.3 µM	> 100 µM	30.8 µM	> 100 µM	27.4 µM	> 100 µM	26.5 µM	> 100 µM
CN(C)CCCC1(c2ccc(F)cc2)OCc2cc(-c3cccc4[nH]ccc34)ccc21 (stereo not drawn)	1.86 µM	3.7 µM	1.4 µM	3.32 µM	1.89 µM	3.63 µM	1.66 µM	3.33 µM	1.58 µM	3.31 µM	1.6 µM	3.39 µM	1.84 µM	3.44 µM	2.12 µM	5.03 µM	1.55 µM	3.25 µM	1.75 µM	3.78 µM
CCn1cc(C(=O)O)c(=O)c2cc(F)c(N3CCN(S(=O)(=O)c4cccc5ccccc45)CC3)cc21	3.09 µM	> 100 µM	3.93 µM	> 100 µM	3.43 µM	> 100 µM	4.37 µM	> 100 µM	2.66 µM	> 100 µM	3.95 µM	> 100 µM			2.68 µM	9.88 µM	2.72 µM	9.04 µM	3.35 µM	> 100 µM
COc1cc2c(N3CCN(C(=O)Nc4ccc(OC(C)C)cc4)CC3)ncnc2cc1OCCCN1CCCCC1	20.9 µM	99.2 µM	4.98 µM	> 100 µM	18.4 µM	> 61.3 µM	16.2 µM	32.6 µM	18.8 µM	> 100 µM	6.59 µM	26.4 µM	12.5 µM	27.9 µM	10.4 µM	61.1 µM	13.4 µM	36.6 µM	16.6 µM	61.5 µM
c1ccc(-c2[nH]ncc2-c2ccnc(-c3ccc(OCCn4ccnc4)cc3)c2)nc1	14.4 µM	> 25 µM	6.44 µM	> 25 µM	> 25 µM	> 25 µM	> 25 µM	> 25 µM	13.2 µM	> 25 µM	> 25 µM	> 25 µM	> 25 µM	> 25 µM	> 25 µM	> 25 µM	> 25 µM	> 25 µM	5.68 µM	> 25 µM
O=C(Nc1ccc(N=C=S)cc1Cl)c1cc(Br)cc(Br)c1O		46.6 µM		97.1 µM		> 100 µM		> 100 µM		54.5 µM		38 µM		> 100 µM		69.4 µM		> 100 µM		> 100 µM
Cc1ccc(O)cc1Nc1ccnc2ccc(S(C)(=O)=O)cc12	3.53 µM	16.4 µM	0.161 µM	> 25 µM	10.5 µM	> 25 µM	0.939 µM	> 21.8 µM	4.2 µM	> 25 µM	0.433 µM	2.92 µM	3.34 µM	> 25 µM	0.42 µM	4.25 µM	> 25 µM	> 25 µM	1.59 µM	24.3 µM
CNCc1cccc2c1OCCOCCOCCN(C)S(=O)(=O)c1ccc(cc1)-c1cnc(N)c(n1)C(=O)N2	1.88 µM	4.46 µM	0.622 µM	10.3 µM	0.868 µM	2.95 µM	1.11 µM	3.4 µM	1.94 µM	8.09 µM	1.08 µM	4.92 µM	3.35 µM	13.3 µM	0.663 µM	3.64 µM	0.0566 µM	17.9 µM	2.25 µM	6.15 µM
COc1ccc2c(c1)C(=O)c1c-2c(Nc2ccccc2OC)nc2ccccc12	> 100 µM	> 100 µM	> 100 µM	> 100 µM	> 100 µM	> 100 µM	> 100 µM	> 100 µM	> 100 µM	> 100 µM	> 100 µM	> 100 µM	> 100 µM	> 100 µM	> 100 µM	> 100 µM	> 100 µM	> 100 µM	> 100 µM	> 100 µM
COc1cc(CNc2nc3cc(N)cc(N)c3nc2-c2ccccc2)cc(OC)c1	2.8 µM	8.1 µM	3.6 µM	9.23 µM	10.5 µM	> 100 µM	10.1 µM	49.3 µM	3.05 µM	14.4 µM	8.17 µM	44.4 µM	14.2 µM	35.1 µM	8.53 µM	> 100 µM	8.34 µM	> 100 µM	1.67 µM	4.57 µM
CC1=C(C(=O)Nc2ccccc2)C(c2ccc(N(C)C)cc2)C(C(=O)Nc2ccccc2)=C(C)N1		> 100 µM		> 69.1 µM		> 100 µM		> 56 µM		> 100 µM		> 75.8 µM		50.2 µM		> 100 µM		> 100 µM		> 93.6 µM
CCCCCCN(CCCCCC)C(=S)N/N=C(\C)c1ccccn1		3.38 µM		4.64 µM		2.97 µM		3.29 µM		1.88 µM		4.29 µM		3.19 µM		4.46 µM		3.16 µM		1.91 µM
N#CC1c2ccccc2C=CN1C(=O)CCCl (stereo not drawn)	14.4 µM	30.6 µM	4.03 µM	60 µM	18.4 µM	36.3 µM	13.6 µM	27.6 µM	14.1 µM	28.5 µM	11.1 µM	26.2 µM	29.4 µM	> 87.5 µM	17.4 µM	47.3 µM	2.6 µM	12.5 µM	3.65 µM	17.1 µM
O=C1c2cccc(Oc3ccccc3)c2C(=O)c2cccc(Oc3ccccc3)c21	> 100 µM	> 100 µM	> 100 µM	> 100 µM	> 100 µM	> 100 µM	> 100 µM	> 100 µM	> 100 µM	> 100 µM	> 100 µM	> 100 µM	22.2 µM	> 100 µM	7.68 µM	> 100 µM	> 100 µM	> 100 µM	> 100 µM	> 100 µM
Cc1c(C(=N)C(C#N)C#N)c(=N)oc2c1ccc1ccccc12	23.9 µM	> 100 µM	19.4 µM	> 100 µM	27.2 µM	> 100 µM	23.9 µM	> 100 µM	29.5 µM	> 100 µM	20.5 µM	71.1 µM	33.9 µM	> 100 µM	10.5 µM	66.2 µM	5.34 µM	> 100 µM	10.1 µM	> 100 µM
Cc1cccc(NC(=O)c2sc3nc4c(cc3c2N)C(=O)CCC4)c1	1.23 µM	> 91.9 µM	0.105 µM	> 100 µM	0.312 µM	> 39.3 µM	0.179 µM	> 34.6 µM	0.397 µM	> 48.1 µM	0.223 µM	> 20.1 µM	0.194 µM	> 47.6 µM	0.291 µM	12.9 µM	0.157 µM	> 100 µM	0.397 µM	> 100 µM
O=C1CC(c2ccccc2)Oc2ccccc21 (stereo not drawn)		> 100 µM		32.6 µM		> 100 µM		> 100 µM		> 100 µM		59.7 µM		> 100 µM		> 100 µM		> 100 µM		> 100 µM
CC(C)(CO)CNC(=O)c1ccc2[nH]c(O)c(N=Nc3ccc(S(N)(=O)=O)cc3)c2c1	> 25 µM	> 25 µM	> 25 µM	> 25 µM	> 25 µM	> 25 µM	> 25 µM	> 25 µM	> 25 µM	> 25 µM	> 25 µM	> 25 µM	> 25 µM	> 25 µM	> 25 µM	> 25 µM	> 25 µM	> 25 µM	> 25 µM	> 25 µM
Cc1nn(-c2ccc(Cl)cc2)c2ncnc(N/N=C/c3ccccc3O)c12	0.42 µM and 0.361 µM	43.2 µM and > 100 µM	1.01 µM and 0.435 µM	> 100 µM	0.375 µM and 0.347 µM	3.14 µM and 5.67 µM	0.523 µM and 0.34 µM	2.43 µM and 2.11 µM	1.09 µM and 0.568 µM	> 100 µM	2.43 µM and 1.62 µM	> 100 µM	0.841 µM and 1.12 µM	9.93 µM and 24.4 µM	4.12 µM and 2.12 µM	> 88.1 µM	0.887 µM and 0.399 µM	> 100 µM	2.09 µM and 0.89 µM	> 100 µM and 23.5 µM
CC(Br)C(=O)NC(CO)C(=O)O (stereo not drawn)		> 100 µM		> 100 µM		> 100 µM		> 100 µM		> 100 µM		> 100 µM		> 100 µM		> 100 µM		> 100 µM		> 100 µM
CN[C@@H](C)C(=O)N[C@H]1CN(S(=O)(=O)c2cccc(S(=O)(=O)N3CC[C@H]4CC[C@@H](C(=O)NC(c5ccccc5)c5ccccc5)N4C(=O)[C@@H](NC(=O)[C@H](C)NC)C3)c2)CC[C@H]2CC[C@@H](C(=O)NC(c3ccccc3)c3ccccc3)N2C1=O	5.64 µM	26.8 µM	26.5 µM	> 100 µM	20.2 µM	46.3 µM	34.3 µM	> 100 µM	21.5 µM	> 63.3 µM	20.7 µM	> 48.3 µM	14.4 µM	> 71.4 µM	18.9 µM	47.8 µM	6.93 µM	29.2 µM	23.6 µM	> 100 µM
COc1cc2c(cc1Nc1nc(N3CCc4ccccc43)c3cc[nH]c3n1)N(C(=O)CN(C)C)CC2	1.67 µM	3.84 µM	0.478 µM	1.2 µM	1.29 µM	2.79 µM	0.6 µM	1.51 µM	2.24 µM	6.43 µM	0.364 µM	0.731 µM	4.79 µM	11.8 µM	4.52 µM	11.4 µM	0.48 µM	2.09 µM	7.91 µM	16.7 µM
N#CC1(c2ccc(NC(=O)c3cccnc3NCc3ccncc3)cc2)CCCC1	21.1 µM	> 83.3 µM	5.79 µM	> 51 µM	14.1 µM	54.3 µM	16.1 µM	> 67.1 µM	15.5 µM	> 64.3 µM	9.96 µM	> 56.2 µM	9.38 µM	27.3 µM	9.86 µM	50.2 µM	10.6 µM	49.5 µM	4.15 µM	49.7 µM
